Measurements as given in the supplement of paper PMC4932681.

What was measured:
BT-474 Tam1 [1] = assay: drug sensitivity score (DSS) (DSS (dimensionless)); higher = more sensitive; extreme values may be limits of the assay; conditions: 4-OH-tamoxifen in medium 1 µM; 72 h
Outline: (§1)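 Breast cancer cell lines and their resistant derivatives were seeded into 384-well plates containing library drugs at five concentrations across a 10 000-fold range, with resistant lines kept in medium with 1 μM of the selecting drug. After 72 h at 37 °C, CellTiter-Glo viability was read on a PHERAstar and normalised to vehicle-only and positive controls. Logistic dose–response fits in the Breeze pipeline gave drug sensitivity score, relative IC50 (curve midpoint) and top-dose inhibition.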

BT-474 Tam2 [2] = assay: as above; conditions: 4-OH-tamoxifen in medium 1 µM; 72 h
Outline: as §1

BT-474 [3] = assay: as above; conditions: 72 h
Outline: as §1

MCF-7 Tam1 [4] = assay: as above; conditions: 4-OH-tamoxifen in medium 1 µM; 72 h
Outline: as §1

MCF-7 [5] = assay: as above; conditions: 72 h
Outline: as §1

T-47D Tam1 [6] = assay: as above; conditions: 4-OH-tamoxifen in medium 1 µM; 72 h
Outline: as §1

T-47D Tam2 [7] = assay: as above; conditions: 4-OH-tamoxifen in medium 1 µM; 72 h
Outline: as §1

T-47D [8] = assay: as above; conditions: 72 h
Outline: as §1

ZR-75-1 Tam1 [9] = assay: as above; conditions: 4-OH-tamoxifen in medium 1 µM; 72 h
Outline: as §1

ZR-75-1 Tam2 [10] = assay: as above; conditions: 4-OH-tamoxifen in medium 1 µM; 72 h
Outline: as §1

ZR-75-1 [11] = assay: as above; conditions: 72 h
Outline: as §1

BT-474 Tam1 [12] = assay: relative IC50 (midpoint of fitted logistic curve, plateau may be below 50% inhibition; CellTiter-Glo viability); higher = less potent; conditions: 4-OH-tamoxifen in medium 1 µM; 72 h
Outline: as §1

BT-474 Tam2 [13] = assay: as above; conditions: 4-OH-tamoxifen in medium 1 µM; 72 h
Outline: as §1

BT-474 [14] = assay: as above; conditions: 72 h
Outline: as §1

MCF-7 Tam1 [15] = assay: as above; conditions: 4-OH-tamoxifen in medium 1 µM; 72 h
Outline: as §1

MCF-7 [16] = assay: as above; conditions: 72 h
Outline: as §1

T-47D Tam1 [17] = assay: as above; conditions: 4-OH-tamoxifen in medium 1 µM; 72 h
Outline: as §1

T-47D Tam2 [18] = assay: as above; conditions: 4-OH-tamoxifen in medium 1 µM; 72 h
Outline: as §1

T-47D [19] = assay: as above; conditions: 72 h
Outline: as §1

ZR-75-1 Tam1 [20] = assay: as above; conditions: 4-OH-tamoxifen in medium 1 µM; 72 h
Outline: as §1

ZR-75-1 Tam2 [21] = assay: as above; conditions: 4-OH-tamoxifen in medium 1 µM; 72 h
Outline: as §1

ZR-75-1 [22] = assay: as above; conditions: 72 h
Outline: as §1

Compound	relative IC50 (BT-474 Tam1 [12]) [nM]	relative IC50 (BT-474 Tam2 [13]) [nM]	relative IC50 (BT-474 [14]; 4-OH-tamoxifen in medium 0 µM) [nM]	relative IC50 (BT-474 [14]; 4-OH-tamoxifen in medium 1 µM) [nM]	relative IC50 (MCF-7 Tam1 [15]) [nM]	relative IC50 (MCF-7 [16]; 4-OH-tamoxifen in medium 0 µM) [nM]	relative IC50 (MCF-7 [16]; 4-OH-tamoxifen in medium 1 µM) [nM]	relative IC50 (T-47D Tam1 [17]) [nM]	relative IC50 (T-47D Tam2 [18]) [nM]	relative IC50 (T-47D [19]; 4-OH-tamoxifen in medium 0 µM) [nM]	relative IC50 (T-47D [19]; 4-OH-tamoxifen in medium 1 µM) [nM]	drug sensitivity score (BT-474 Tam1 [1])	drug sensitivity score (BT-474 Tam2 [2])	drug sensitivity score (BT-474 [3]; 4-OH-tamoxifen in medium 0 µM)	drug sensitivity score (BT-474 [3]; 4-OH-tamoxifen in medium 1 µM)	drug sensitivity score (MCF-7 Tam1 [4])	drug sensitivity score (MCF-7 [5]; 4-OH-tamoxifen in medium 0 µM)	drug sensitivity score (MCF-7 [5]; 4-OH-tamoxifen in medium 1 µM)	drug sensitivity score (T-47D Tam1 [6])	drug sensitivity score (T-47D Tam2 [7])	drug sensitivity score (T-47D [8]; 4-OH-tamoxifen in medium 0 µM)	drug sensitivity score (T-47D [8]; 4-OH-tamoxifen in medium 1 µM)	drug sensitivity score (ZR-75-1 Tam1 [9])	drug sensitivity score (ZR-75-1 Tam2 [10])	drug sensitivity score (ZR-75-1 [11]; 4-OH-tamoxifen in medium 0 µM)	drug sensitivity score (ZR-75-1 [11]; 4-OH-tamoxifen in medium 1 µM)	relative IC50 (ZR-75-1 Tam1 [20]) [nM]	relative IC50 (ZR-75-1 Tam2 [21]) [nM]	relative IC50 (ZR-75-1 [22]; 4-OH-tamoxifen in medium 0 µM) [nM]	relative IC50 (ZR-75-1 [22]; 4-OH-tamoxifen in medium 1 µM) [nM]
CNCc1ccc(-c2[nH]c3cc(F)cc4c3c2CCNC4=O)cc1	> 10000	> 10000	> 10000	> 10000	> 10000	> 10000	> 10000	> 10000	> 10000	> 10000	> 10000	0	0	0	0	0	0	0	0	0	0	0	0	0	0	0	> 10000	> 10000	> 10000	> 10000
COc1ncc(-c2ccc3nccc(-c4ccnnc4)c3c2)cc1NS(=O)(=O)c1ccc(F)cc1F	2.07	7.03	15.1	5.69	9.12	5.97	8.41	3.99	15.3	5.87	19.7	31	25	18.5	25.9	13.1	18.1	19.8	22.4	15.7	19.3	15.6	18.6	19.4	19.3	16.3	10.4	10.7	7.56	10.7
Cc1ccc(C(=O)N(CCCN)[C@@H](c2oc3cc(Cl)ccc3c(=O)c2Cc2ccccc2)C(C)C)cc1	> 100	> 100	> 100	> 100	> 100	> 100	–	> 100	> 100	> 100	> 100	0	0	0	0	0	0	0.514	0	0	0	0	0	0	0	0	> 100	> 100	> 100	> 100
Cc1cccc(-c2nn3c(c2-c2ccnc4ccc(C(N)=O)cc24)CCC3)n1	> 1000	> 1000	> 1000	> 1000	> 1000	> 1000	–	> 1000	> 1000	> 1000	> 1000	0	0	0	0	0	0	0.246	0	0	0	0	0	0	0	0	> 1000	> 1000	> 1000	> 1000
Nc1nc(=O)c2c([nH]1)NCC(CNc1ccc(C(=O)N[C@@H](CCC(=O)O)C(=O)O)cc1)N2C=O (mixture of isomers) [Folinic acid]	> 990000	> 990000	> 990000	> 990000	> 990000	> 990000	> 990000	> 990000	> 990000	> 990000	> 990000	0	0	0	0	0	0	0	0	0	0	0	0	0	0.942	0	> 990000	> 990000	> 990000	> 990000
COc1ccc(-c2ccc3c(N4CCOC[C@@H]4C)nc(N4CCOC[C@@H]4C)nc3n2)cc1CO [AZD8055]	378	399	60.7	267	147	48.4	130	39.9	227	61.1	423	12.7	8.38	11.8	13.6	6.06	20.2	11.5	17.1	10.2	16.7	8.08	16.2	19.8	18.4	17.4	38.9	18.5	31.3	12.3
CN(C)c1nc(N(C)C)nc(N(C)C)n1 [Altretamine]	> 10000	> 10000	> 10000	> 10000	> 10000	> 10000	–	3370	> 10000	> 10000	–	0	0	0	0	0	0	0.0496	2.61	0	0	0.283	0	0	0	0	> 10000	> 10000	> 10000	> 10000
Cn1cncc1[C@@](N)(c1ccc(Cl)cc1)c1ccc2c(c1)c(-c1cccc(Cl)c1)cc(=O)n2C [Tipifarnib  (Zarnestra)]	1500	1410	817	1650	1510	277	329	862	877	–	–	7.78	7.37	4.27	6.99	3.82	11	12.6	6.21	4.67	3.25	0.489	7.03	6.76	6.34	7.52	762	808	606	405

Second part, led by results:

relative IC50 (BT-474 Tam1 [12]) [nM]	relative IC50 (BT-474 Tam2 [13]) [nM]	relative IC50 (BT-474 [14]; 4-OH-tamoxifen in medium 0 µM) [nM]	relative IC50 (BT-474 [14]; 4-OH-tamoxifen in medium 1 µM) [nM]	relative IC50 (MCF-7 Tam1 [15]) [nM]	relative IC50 (MCF-7 [16]; 4-OH-tamoxifen in medium 0 µM) [nM]	relative IC50 (MCF-7 [16]; 4-OH-tamoxifen in medium 1 µM) [nM]	relative IC50 (T-47D Tam1 [17]) [nM]	relative IC50 (T-47D Tam2 [18]) [nM]	relative IC50 (T-47D [19]; 4-OH-tamoxifen in medium 0 µM) [nM]	relative IC50 (T-47D [19]; 4-OH-tamoxifen in medium 1 µM) [nM]	Compound	drug sensitivity score (BT-474 Tam1 [1])	drug sensitivity score (BT-474 Tam2 [2])	drug sensitivity score (BT-474 [3]; 4-OH-tamoxifen in medium 0 µM)	drug sensitivity score (BT-474 [3]; 4-OH-tamoxifen in medium 1 µM)	drug sensitivity score (MCF-7 Tam1 [4])	drug sensitivity score (MCF-7 [5]; 4-OH-tamoxifen in medium 0 µM)	drug sensitivity score (MCF-7 [5]; 4-OH-tamoxifen in medium 1 µM)	drug sensitivity score (T-47D Tam1 [6])	drug sensitivity score (T-47D Tam2 [7])	drug sensitivity score (T-47D [8]; 4-OH-tamoxifen in medium 0 µM)	drug sensitivity score (T-47D [8]; 4-OH-tamoxifen in medium 1 µM)	drug sensitivity score (ZR-75-1 Tam1 [9])	drug sensitivity score (ZR-75-1 Tam2 [10])	drug sensitivity score (ZR-75-1 [11]; 4-OH-tamoxifen in medium 0 µM)	drug sensitivity score (ZR-75-1 [11]; 4-OH-tamoxifen in medium 1 µM)	relative IC50 (ZR-75-1 Tam1 [20]) [nM]	relative IC50 (ZR-75-1 Tam2 [21]) [nM]	relative IC50 (ZR-75-1 [22]; 4-OH-tamoxifen in medium 0 µM) [nM]	relative IC50 (ZR-75-1 [22]; 4-OH-tamoxifen in medium 1 µM) [nM]
> 10000	> 10000	> 10000	> 10000	> 10000	> 10000	> 10000	1030	833	–	–	CO[C@@H](C(=O)N1Cc2[nH]nc(NC(=O)c3ccc(N4CCN(C)CC4)cc3)c2C1)c1ccccc1	0	0	0	0	0	0	0	4.24	3.95	2.94	1.25	0	0	0	0	> 10000	> 10000	> 10000	> 10000
121	175	297	76.6	194	77.5	173	188	305	184	332	COc1ccc(-c2cc3c(C)nc(N)nc3n([C@H]3CC[C@H](OCCO)CC3)c2=O)cn1	22.7	19.5	16.5	24.3	13.2	20.2	16.4	18.1	14.9	18.6	15.4	16.3	24	19	17	208	52.5	102	102
> 10000	> 10000	> 10000	> 10000	> 10000	> 10000	> 10000	> 10000	> 10000	> 10000	> 10000	N#CC[C@H](C1CCCC1)n1cc(-c2ncnc3[nH]ccc23)cn1	0	0	0	0	0	0	0	0	0	0	0	0	0	0	0	> 10000	> 10000	> 10000	> 10000
> 5000	> 5000	> 5000	> 5000	> 5000	> 5000	> 5000	> 5000	> 5000	> 5000	> 5000	C[C@]12CC[C@H](O)CC1=CC[C@@H]1[C@@H]2CC[C@]2(C)C(c3cccnc3)=CC[C@@H]12 [Abiraterone (CB-7598)]	0	0	0	0	0	0	0	0	0	0	0	0	0	0	0	> 5000	> 5000	> 5000	> 5000
1780	857	–	1040	> 10000	369	553	1120	1080	–	–	C=CCn1c(=O)c2cnc(Nc3ccc(N4CCN(C)CC4)cc3)nc2n1-c1cccc(C(C)(C)O)n1 [MK-1775]	3.33	2.77	2.85	4.97	0	7.89	5.16	4.22	4.14	2.12	1.93	0	0	0.795	0.472	> 10000	> 10000	–	–
> 10000	> 10000	> 10000	> 10000	> 10000	–	–	> 10000	> 10000	> 10000	> 10000	C[C@]12C=CC(=O)C=C1CC[C@@H]1[C@@H]2[C@@H](O)C[C@@]2(C)[C@H]1CC[C@]2(O)C(=O)CO [Prednisolone]	0	0	0	0	0	0.324	0.407	0	0	0	0	0	0	0	0	> 10000	> 10000	> 10000	> 10000
